Columns and labels:
[1] = system: patients with advanced GIST; assay: Example 2: patient reported outcomes (EQ-5D-5L VAS, EORTC QLQ-C30); type: in vivo, human; details: 150 mg QD
Protocol: Patient reported outcomes were assessed by EQ-5D-5L, which provides a visual analogue scale (VAS), and EORTC QLQ-C30, which provides physical function and role function scales. The EQ-5D-5L VAS (or EQ-VAS) records the respondent's overall current health on a vertical visual analogue scale and provides a quantitative measure of the patient's perception of overall health. These patient outcomes were reported across 28-day cycles of receiving 150 mg QD ripretinib or placebo.
The EORTC QLQ-C30 is an assessment of function and symptoms of therapy by cancer patient, and is not specific to any cancer. The EORTC QLQ-C30 is a 30-question plus one global health status, including 5 functional scales, 3 symptom scales and a global health status.

[2] = Solubility; type: physicochemical

Compound: CCn1c(=O)c(-c2cc(NC(=O)Nc3ccccc3)c(F)cc2Br)cc2cnc(NC)cc21 [ripretinib]
- EORTC QLQ-C30 role function score, average improvement from baseline to C2D1 ([1]; 70 patients): 3.5
- EQ-VAS score, average improvement from baseline to Cycle 2, Day 1 (C2D1) ([1]; 70 patients): 3.7
- EORTC QLQ-C30 physical function score, average improvement from baseline to C2D1 ([1]; 71 patients): 1.6
- EORTC QLQ-C30 Question C29 (overall health) score improvement ([1]; scale 1 to 7, 70 patients): 0.20
- EORTC QLQ-C30 Question C30 (overall quality of life) score improvement ([1]; scale 1 to 7, 70 patients): 0.28
- Solubility [2]: pH-dependent solubility

Source: patent US12318373B2, “Methods of treating gastrointestinal stromal tumors” (Deciphera Pharmaceuticals, LLC, priority 2019, dated 2025)
